A word on the IC50: it is the concentration needed to halve the response being measured.

The target in this experiment is IGF-1R (Homo sapiens (Human), UniProt P08069). Nature of the experiment: Example B-1: IGF-1R Assay (PC3 cells, IGF1 stimulation, AlphaLISA). The settings on record: 200 ng/mL IGF1 stimulation, read-out: Biological Activity against IGF-1R IC50. The experiment is classed as cell-based. Put shortly: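 Readout is AlphaLISA signal from lysed PC3 cells, expressed as % inhibition versus vehicle and EC80 controls and banded by IC50. Before lysis, the cells were starved of serum for 2 h, exposed to 3× serially diluted compound for 2 h, and stimulated for 30 min with 200 ng/mL IGF1 (final).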
IGF-1R, sequence (P08069 31-1367): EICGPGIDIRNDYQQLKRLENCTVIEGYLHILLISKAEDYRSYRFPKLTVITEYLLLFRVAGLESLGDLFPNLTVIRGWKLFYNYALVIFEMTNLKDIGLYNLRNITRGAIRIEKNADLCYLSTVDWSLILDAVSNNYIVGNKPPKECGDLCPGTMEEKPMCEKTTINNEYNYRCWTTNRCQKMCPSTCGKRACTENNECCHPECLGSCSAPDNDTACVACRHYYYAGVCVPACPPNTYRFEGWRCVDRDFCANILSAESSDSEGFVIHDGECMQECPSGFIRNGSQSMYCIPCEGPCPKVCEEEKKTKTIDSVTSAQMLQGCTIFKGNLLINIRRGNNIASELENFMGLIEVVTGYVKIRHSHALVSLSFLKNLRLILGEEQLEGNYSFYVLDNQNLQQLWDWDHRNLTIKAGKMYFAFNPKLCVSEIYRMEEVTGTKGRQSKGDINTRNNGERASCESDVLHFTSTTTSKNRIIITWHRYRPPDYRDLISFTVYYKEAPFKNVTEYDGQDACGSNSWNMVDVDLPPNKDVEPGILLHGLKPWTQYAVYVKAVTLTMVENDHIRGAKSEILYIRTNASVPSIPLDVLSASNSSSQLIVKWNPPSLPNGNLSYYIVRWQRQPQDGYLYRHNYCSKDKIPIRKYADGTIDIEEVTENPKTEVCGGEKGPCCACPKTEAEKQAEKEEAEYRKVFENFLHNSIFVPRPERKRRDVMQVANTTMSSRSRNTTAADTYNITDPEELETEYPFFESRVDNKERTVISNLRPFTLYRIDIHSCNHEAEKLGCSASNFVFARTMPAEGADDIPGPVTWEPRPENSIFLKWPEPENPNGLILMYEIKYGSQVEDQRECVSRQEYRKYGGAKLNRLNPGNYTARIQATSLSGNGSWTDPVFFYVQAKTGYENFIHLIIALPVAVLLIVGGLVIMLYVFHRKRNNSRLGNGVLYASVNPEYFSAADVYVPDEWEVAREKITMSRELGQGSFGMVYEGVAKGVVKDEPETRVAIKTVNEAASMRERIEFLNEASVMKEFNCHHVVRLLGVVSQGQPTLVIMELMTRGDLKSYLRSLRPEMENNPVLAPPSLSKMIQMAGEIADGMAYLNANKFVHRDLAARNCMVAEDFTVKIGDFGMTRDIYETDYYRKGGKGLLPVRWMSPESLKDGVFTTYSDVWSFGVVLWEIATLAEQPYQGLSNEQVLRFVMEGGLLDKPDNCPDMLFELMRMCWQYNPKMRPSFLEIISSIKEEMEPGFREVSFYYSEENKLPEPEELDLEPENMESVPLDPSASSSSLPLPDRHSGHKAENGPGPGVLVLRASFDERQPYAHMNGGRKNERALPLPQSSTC
(Alpha assays give light when donor and acceptor beads are brought close together.)
`COc1cc(Nc2nccc(Nc3cnc4[nH]cc(C)c4c3)n2)ccc1O[C@H]1C[C@@H](N(C)C)C1` [Compound 281, 2-{3-methoxy-4-[(1s,3s)-3-(dimethylamino)cyclobutoxy]phenylamino}-4-(3-methyl-1H-1,7-diazainden-5-ylamino)pyrimidine]: the IC50 was ≤ 500 nM.

With `COc1cc(Nc2nccc(Nc3ncc4ccc(Br)cc4n3)n2)ccc1O[C@H]1C[C@@H](N(C)C)C1` [Compound 307, 4-(7-bromo-2-quinazolinylamino)-2-{3-methoxy-4-[(1s,3s)-3-(dimethylamino)cyclobutoxy]phenylamino}pyrimidine], the concentration for half-maximal inhibition (IC50) was 2000 to 10000 nM.

As to `COc1cc(Nc2nccc(Nc3ccc4c(OC)cccc4c3)n2)ccc1OCCCN1CCCCC1` [Compound 453, 4-(5-methoxy-2-naphthylamino)-2-[3-methoxy-4-(3-piperidinopropoxy)phenylamino] pyrimidine], the IC50 is ≤ 500 nM.

Take `COc1cc(Nc2nccc(Nc3cc4cccc(F)c4[nH]c3=O)n2)cnc1O[C@H]1C[C@@H](N(C)C)C1` [Compound 246, 8-fluoro-3-(2-{5-methoxy-6-[(1s,3s)-3-(dimethylamino)cyclobutoxy]-3-pyridylamino}-4-pyrimidinylamino)-1,2-dihydro-2-quinolinone]: the IC50 is ≤ 500 nM.

Turning to `COc1cc(Nc2nccc(Nc3cnc4cc(F)c(F)cc4c3)n2)cnc1N1CCN(C)C(C(F)(F)F)C1` (stereo not shown) [Compound 475, 4-(6,7-difluoro-3-quinolylamino)-2-{5-methoxy-6-[4-methyl-3-(trifluoromethyl)-1-piperazinyl]-3-pyridylamino}pyrimidine], the concentration for half-maximal inhibition (IC50) was 500 to 2000 nM.

In the case of `COc1cc(Nc2nccc(Nc3cc4ccc(Cl)cc4[nH]c3=O)n2)ccc1O[C@H]1C[C@H](N(C)C)C1` [Compound 110, 7-chloro-3-(2-{3-methoxy-4-[(1r,3r)-3-(dimethylamino)cyclobutoxy]phenyl-amino}-4-pyrimidinylamino)-1,2-dihydro-2-quinolinone], the half-maximal inhibitory concentration (IC50) was ≤ 500 nM.

Regarding `COc1cc(Nc2nccc(Nc3cnc4cncc(F)c4c3)n2)ccc1O[C@H]1C[C@@H](N(C)C)C1` [Compound 274, 4-(5-fluoro-1,7-diaza-3-naphthylamino)-2-{3-methoxy-4-[(1s,3s)-3-(dimethylamino)cyclobutoxy]phenylamino}pyrimidine], the IC50 was in the range of 2000 to 10000 nM.

`COc1cc(Nc2nccc(Nc3cc4cccc(F)c4[nH]c3=O)n2)cnc1N1CCS(=N)(=O)CC1` [Compound 240, 4-{5-[4-(8-fluoro-2-oxo-1,2-dihydro-3-quinolylamino)-2-pyrimidinylamino]-3-methoxy-2-pyridyl}-1-imino-1λ^6,4-thiazinan-1-one]: the IC50 is > 10000 nM.

In the case of `c1ccc2ncc(Nc3ccnc(Nc4ccc(OCCCN5CCCCC5)c(OCC5CC5)c4)n3)cc2c1` [Compound 425, 2-[3-(cyclopropylmethoxy)-4-(3-piperidinopropoxy)phenylamino]-4-(3-quinolylamino)pyrimidine], the IC50 is ≤ 500 nM.

For the compound `COc1cc(Nc2nccc(Nc3cnc4c(c3)OCCO4)n2)ccc1OCCCN1CCCCC1` [Compound 201, 4-(2,3-dihydro-1,4-dioxa-5-aza-7-naphthylamino)-2-[3-methoxy-4-(3-piperidinopropoxy)phenylamino]pyrimidine], the IC50 is ≤ 500 nM.

In the case of `COc1cc(O[C@H]2C[C@@H](N(C)C)C2)ccc1Nc1nccc(Nc2cnc3ccccc3c2)n1` [Compound 19, 2-{2-methoxy-4-[(1s,3s)-3-(dimethylamino)cyclobutoxy]phenylamino}-4-(3-quinolylamino)pyrimidine], the half-inhibitory concentration (IC50) is ≤ 500 nM.

Turning to `COc1cc(Nc2nccc(Nc3cnc4c(c3)CCC4)n2)ccc1OCCCN1CCCCC1` [Compound 194, 4-(4-aza-6-indanylamino)-2-[3-methoxy-4-(3-piperidinopropoxy)phenylamino] pyrimidine], the IC50 was ≤ 500 nM.

For the compound `COc1cc(Nc2nccc(Nc3cnc4ccc(C5CC5)cc4c3)n2)ccc1OCCCN1CCCCC1` [Compound 102, 4-(6-cyclopropyl-3-quinolylamino)-2-[3-methoxy-4-(3-piperidinopropoxy)phenylamino]pyrimidine], the half-inhibitory concentration (IC50) was ≤ 500 nM.

As to `COc1cc(N2CCN(C)CC2)ncc1Nc1nccc(Nc2cnc3cc(F)c(F)cc3c2)n1` [Compound 473, 4-(6,7-difluoro-3-quinolylamino)-2-[4-methoxy-6-(4-methy1-1-piperazinyl)-3-pyridylamino]pyrimidine], the IC50 was ≤ 500 nM.

With `CN(C)CC1COc2cc(Nc3nccc(Nc4cc5cc(Cl)ccc5[nH]c4=O)n3)ccc2O1` (stereo not shown) [Compound 245, 6-chloro-3-(2-{2-[(dimethylamino)methyl]-2,3-dihydro-1,4-benzodioxin-6-ylamino}-4-pyrimidinylamino)-1,2-dihydro-2-quinolinone], the IC50 was ≤ 500 nM.

`COc1cc(Nc2nccc(Nc3cnc4c(c3)CCC(C)(C)C4)n2)ccc1O[C@H]1C[C@H](N(C)C)C1` [Compound 338, 4-(7,7-dimethyl-5,6,7,8-tetrahydro-3-quinolylamino)-2-{3-methoxy-4-[(1r,3r)-3-(dimethylamino)cyclobutoxy]phenylamino}pyrimidine]: the half-inhibitory concentration (IC50) was ≤ 500 nM.

With `COc1cc(Nc2nccc(Nc3cc4ccccc4nc3OC)n2)ccc1O[C@H]1C[C@H](N(C)C)C1` [Compound 340, 4-(2-methoxy-3-quinolylamino)-2-{3-methoxy-4-[(1r,3r)-3-(dimethylamino)cyclobutoxy]phenylamino}pyrimidine], the concentration for half-maximal inhibition (IC50) was ≤ 500 nM.

Consider `COc1cc(N2CCN(C3COC3)CC2)ncc1Nc1ncc(F)c(Nc2cc3ccccc3nc2C(N)=O)n1` [Compound 495, 3-(5-fluoro-2-{4-methoxy-6-[4-(3-oxetanyl)-1-piperazinyl]-3-pyridylamino}-4-pyrimidinylamino)-2-quinolinecarboxamide], for which the IC50 was ≤ 500 nM.

On to `COc1cc(Nc2nccc(Nc3cnc4[nH]ncc4c3)n2)ccc1O[C@H]1C[C@@H](N(C)C)C1` [Compound 300, 2-{3-methoxy-4-[(1s,3s)-3-(dimethylamino)cyclobutoxy]phenylamino}-4-(1H-1,2,7-triazainden-5-ylamino)pyrimidine], for which the IC50 lay within 500 to 2000 nM.

Consider `COc1cc(Nc2nccc(Nc3cnc4cc(F)c(F)cc4c3)n2)cnc1N1CCNCC1` [Compound 478, 4-(6,7-difluoro-3-quinolylamino)-2-[5-methoxy-6-(1-piperazinyl)-3-pyridylamino]pyrimidine], for which the IC50 is ≤ 500 nM.

On to `COc1nc(N2CCC(C)(O)CC2)ccc1Nc1nccc(Nc2cnc3ccc(Cl)cc3c2)n1` [Compound 489, 1-{5-[4-(6-chloro-3-quinolylamino)-2-pyrimidinylamino]-6-methoxy-2-pyridyl}-4-methyl-4-piperidinol], for which the half-maximal inhibitory concentration (IC50) was ≤ 500 nM.

Consider `COc1cc(Nc2nccc(Nc3cc4cccc(F)c4[nH]c3=O)n2)cnc1N1CCN(CC(F)(F)F)CC1` [Compound 232, 8-fluoro-3-(2-{5-methoxy-6-[4-(2,2,2-trifluoroethyl)-1-piperazinyl]-3-pyridylamino}-4-pyrimidinylamino)-1,2-dihydro-2-quinolinone], for which the IC50 is ≤ 500 nM.

As for `C[C@@H]1COc2ncc(Nc3ccnc(Nc4ccc(OCCCN5CCOCC5)cc4)n3)cc2O1` [Compound 105, 4-[(R)-2-methyl-2,3-dihydro-1,4-dioxa-5-aza-7-naphthylamino]-2-[p-(3-morpholinopropoxy)phenylamino]pyrimidine], the IC50 was ≤ 500 nM.

With `Cc1ccc2cc(Nc3ccnc(Nc4ccc(OCCCN5CCOCC5)cc4)n3)cnc2c1` [Compound 407, 4-(7-methyl-3-quinolylamino)-2-[p-(3-morpholinopropoxy)phenylamino]pyrimidine], the 50% inhibitory concentration (IC50) lay within 500 to 2000 nM.

`COc1cc(Nc2nccc(Nc3cnc4c(F)c(F)ccc4c3)n2)ccc1O[C@H]1C[C@H](N(C)C)C1` [Compound 323, 4-(7,8-difluoro-3-quinolylamino)-2-{3-methoxy-4-[(1r,3r)-3-(dimethylamino)cyclobutoxy]phenylamino}pyrimidine]: the half-maximal inhibitory concentration (IC50) was ≤ 500 nM.

In the case of `COc1cc(Nc2nccc(Nc3cnc4ccc(Cl)nc4c3)n2)ccc1O[C@H]1C[C@H](N(C)C)C1` [Compound 285, 4-(6-chloro-1,5-diaza-3-naphthylamino)-2-{3-methoxy-4-[(1r,3r)-3-(dimethylamino)cyclobutoxy]phenylamino}pyrimidine], the half-maximal inhibitory concentration (IC50) was ≤ 500 nM.

Take `COc1cc(Nc2nccc(Nc3cnc4cc(F)c(F)cc4c3)n2)cnc1N1CCN(C2COC2)CC1` [Compound 51, 4-(6,7-difluoro-3-quinolylamino)-2-{5-methoxy-6-[4-(3-oxetanyl)-1-piperazinyl]-3-pyridylamino}pyrimidine]: the IC50 is ≤ 500 nM.

In the case of `COc1cc(Nc2ncc(F)c(Nc3cc4ccccc4nc3C(N)=O)n2)cnc1N1CCC(C)(O)CC1` [Compound 491, 3-{5-fluoro-2-[6-(4-hydroxy-4-methyl-1-piperidyl)-5-methoxy-3-pyridylamino]-4-pyrimidinylamino}-2-quinolinecarboxamide], the IC50 was ≤ 500 nM.

Consider `COc1cc(Nc2nccc(Nc3cnc4c(c3)OC(C)CO4)n2)ccc1OCCCN1CCCCC1` (stereo not shown) [Compound 387, 2-[3-methoxy-4-(3-piperidinopropoxy)phenylamino]-4-(2-methyl-2,3-dihydro-1,4-dioxa-5-aza-7-naphthylamino)pyrimidine], for which the IC50 is ≤ 500 nM.

For the compound `COc1cc(Nc2nccc(Nc3cc(C)c4ccccc4c3)n2)ccc1OCCCN1CCCCC1` [Compound 454, 2-[3-methoxy-4-(3-piperidinopropoxy)phenylamino]-4-(4-methyl-2-naphthylamino) pyrimidine], the IC50 is ≤ 500 nM.

Regarding `COc1cc(Nc2nccc(Nc3cnc4c(c3)CC(F)(F)CC4)n2)ccc1O[C@H]1C[C@H](N(C)C)C1` [Compound 81, 4-(6,6-difluoro-5,6,7,8-tetrahydro-3-quinolylamino)-2-{3-methoxy-4-[(1r,3r)-3-(dimethylamino)cyclobutoxy]phenylamino}pyrimidine], the half-maximal inhibitory concentration (IC50) is ≤ 500 nM.

Values taken from patent US20250171431A1, “HETEROCYCLIC INHIBITORS OF IGF-1R FOR TREATMENT OF DISEASE” (HORIZON THERAPEUTICS IRELAND DAC, priority 2023, published 2025).
